According to paper PMC5715404, “Design, Synthesis, and Evaluation of Ribose-Modified Anilinopyrimidine Derivatives as EGFR Tyrosine Kinase Inhibitors” (Frontiers in Chemistry, 2017):
Entries after “also recorded” stand apart in the source; their conditions may differ.

Tests used:
EGFR WT = target: T1, EGFR WT (Homo sapiens, UniProt P00533); experiment: ELISA-based EGFR-TK kinase assay, EGFR WT; type: biochemical; conditions: 10 μmol/L ATP solution, 37°C 1 h, mean ± SD of at least two determinations, read-out: EGFR tyrosine kinase IC50, EGFR
T1 construct: Kinases domain of EGFR WT and EGFR L858R/T790M were expressed; made in house; host or cells: baculovirus expression system (Bac-to-Bac)
Description: (§1) Kinases domain of EGFR WT and EGFR L858R/T790M were expressed using the Bac-to-Bac™ baculo virus expression system (Invitrogen, Carlsbad, CA, USA) and purified in Ni-NTA columns (QIAGEN Inc., Valencia, CA, USA). The kinase activity was evaluated with enzyme-linked immunosorbent assay (ELISA). Briefly, 20 μg/mL Poly (Glu, Tyr) 4:1 (Sigma, St. Louis, MO) was precoated in 96-well ELISA plates as substrate. After adding 50 μL of 10 μmol/L ATP solution which was diluted in kinase reaction buffer (50 mM HEPES pH 7.4, 20 mM MgCl2, 0.1 mM MnCl2, 0.2 mM Na3VO4, 1 mM DTT), the plate was treated with 1 μL of indicated concentrations of compounds (dissolved in DMSO) per well. Experiments at each concentration were performed in duplicate. Reaction was initiated by adding tyrosine kinase diluted in kinase reaction buffer. After incubation at 37°C for 1 h, the wells were washed three times with phosphate buffered saline (PBS) containing 0.1% Tween 20 (T-PBS). One hundred microliters of anti-phosphotyrosine (PY99) antibody (1:1,000, Santa Cruz Biotechnology, Santa Cruz, CA) diluted in T-PBS containing 5 mg/mL BSA was added and the plate was incubated at 37°C for 30 min. After the plate was washed three times, 100 μL horseradish peroxidase-conjugated goat anti-mouse IgG (1:2,000, Calbiochem, SanDiego, CA) was added and the plate was incubated at 37°C for 30 min. The plate was washed, added with 100 μL citrate buffer (0.1 M, pH 5.5) containing 0.03% H2O2. Then 2 mg/mL o-phenylenediamine was added, and samples were incubated at room temperature until color emerged. The reaction was terminated immediately by adding 50 μL of 2 M H2SO4. Plate was read using a multiwell spectrophotometer (VERSAmax™, Molecular Devices, Sunnyvale, CA, USA) at 492 nm. The inhibitory rate (%) was calculated with the formula: [1 − (A492 treated/A492 control)] × 100%. IC50 values were calculated from the inhibitory curves.

EGFR L858R/T790M = target: T2, EGFR L858R/T790M (Homo sapiens, UniProt P00533, L858R/T790M); experiment: ELISA-based EGFR-TK kinase assay, EGFR L858R/T790M; type: biochemical; conditions: for selectivity for EGFR L858R/T790M over WT EGFR (in words): EGFR L858R/T790M versus WT EGFR; for IC50 / inhibitory activity against EGFR tyrosine kinases (in words): ELISA; for IC50: 10 μmol/L ATP solution, 37°C 1 h, mean ± SD of at least two determinations, read-out: EGFR tyrosine kinase IC50, EGFR T790M/L858R; for inhibitory activity against EGFR tyrosine kinases (in words): EGFR WT and EGFR L858R/T790M
T2 construct: Kinases domain of EGFR WT and EGFR L858R/T790M were expressed; made in house; host or cells: baculovirus expression system (Bac-to-Bac)
Description: as §1

T2 sequence (P00533 712-979 T790M/L858R limits assumed): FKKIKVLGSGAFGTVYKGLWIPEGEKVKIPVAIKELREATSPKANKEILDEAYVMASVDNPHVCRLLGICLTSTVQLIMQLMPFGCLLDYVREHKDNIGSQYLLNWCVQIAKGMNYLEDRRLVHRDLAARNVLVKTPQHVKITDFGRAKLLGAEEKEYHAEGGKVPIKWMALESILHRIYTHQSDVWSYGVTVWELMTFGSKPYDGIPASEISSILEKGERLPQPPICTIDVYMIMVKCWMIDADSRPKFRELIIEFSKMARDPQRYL
T1 sequence (P00533 712-979 limits assumed): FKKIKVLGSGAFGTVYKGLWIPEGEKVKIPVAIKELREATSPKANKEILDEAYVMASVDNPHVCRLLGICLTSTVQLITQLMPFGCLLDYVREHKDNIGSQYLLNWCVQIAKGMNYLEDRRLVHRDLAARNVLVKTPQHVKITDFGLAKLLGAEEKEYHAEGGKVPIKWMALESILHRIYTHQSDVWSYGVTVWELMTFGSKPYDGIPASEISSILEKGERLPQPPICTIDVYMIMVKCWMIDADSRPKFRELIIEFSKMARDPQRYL

| Compound | IC50 (EGFR WT) [µM] | selectivity for EGFR L858R/T790M over WT EGFR (in words) (EGFR L858R/T790M) | IC50 (EGFR L858R/T790M) [µM] | inhibitory activity against EGFR tyrosine kinases (in words) (EGFR L858R/T790M) |
| --- | --- | --- | --- | --- |
| C=CC(=O)N[C@H]1[C@H]2OC(C)(C)O[C@H]2O[C@@H]1COc1nc(Nc2ccc(N3CCN(C)CC3)cc2OC)ncc1Cl [Compound 1a, 1,2-O-isopropylidene-3-N-acryloyl-3-deoxy-5-O-[5-chloro-2-N-(2-methoxy-4-(4-methylpiperazin-1-yl)phenyl)pyrimidin-4-yl]-α-D-ribofuranoside] | > 10 | potent and specific inhibitory activity; also recorded: good selectivity | 0.62 |  |
| COc1cc(N2CCN(C)CC2)ccc1Nc1ncc(Cl)c(OC[C@H]2OC(O)[C@H](O)[C@@H]2O)n1 (stereo partly drawn) [Compound 26] | > 10 |  | > 10 |  |
| C=CC(=O)NC1O[C@H](COc2nc(Nc3ccc(N4CCN(C)CC4)cc3OC)ncc2Cl)[C@@H](O)[C@H]1O (stereo partly drawn) [Compound 1c, 5-O-[5-chloro-2-N-(2-methoxy-4-(4-methylpiperazin-1-yl)phenyl)pyrimidin-4-yl]-D-ribofuranosyl acrylamide] | > 10 |  | > 10 | no inhibitory activities; also recorded: no inhibitory activity |
| COc1cc(N2CCN(C)CC2)ccc1Nc1ncc(Cl)c(OC[C@H]2O[C@@H](N=[N+]=[N-])[C@H](O)[C@@H]2O)n1 [Compound 24] | > 10 |  | > 10 |  |
| C=CC(=O)N[C@@H]1[C@@H](COc2nc(Nc3ccc(N4CCN(C)CC4)cc3OC)ncc2Cl)OC(O)[C@@H]1O (stereo partly drawn) [Compound 1b, 3-N-acryloyl-3-deoxy-5-O-[5-chloro-2-N-(2-methoxy-4-(4-methylpiperazin-1-yl)phenyl)pyrimidin-4-yl]-D-ribofuranose] | > 10 | specific inhibitory activity | 2.64 |  |
| COc1cc(N2CCN(C)CC2)ccc1Nc1ncc(Cl)c(O[C@H]2[C@@H](O[Si](C)(C)C(C)(C)C)[C@H](N=[N+]=[N-])O[C@@H]2CO)n1 [Compound 25] | > 10 |  | > 10 |  |
| C=CC(=O)N[C@H]1O[C@H](CO)[C@@H](Oc2nc(Nc3ccc(N4CCN(C)CC4)cc3OC)ncc2Cl)[C@H]1O[Si](C)(C)C(C)(C)C [Compound 1d, 3-O-[5-chloro-2-N-(2-methoxy-4-(4-methylpiperazin-1-yl)phenyl)pyrimidin-4-yl]-2-O-tert-butyldimethylsilyl-α-D-ribofuranosyl acrylamide] | > 10 |  | > 10 | no inhibitory activities; also recorded: no inhibitory activity |
